Active and inactive are the calls of the source. The calls are words filed in the database; no cut-off is given here.
Key:
SH-SY5Y [1] = experiment: Cytoprotective activity in human SH-SY5Y cells transfected with alpha-synuclein (unknown origin) assessed as cell viability at 100 uM by CCK8 assay relative to control; type: functional; conditions: read-out: Activity
Mus musculus [2] = experiment: Downregulation of phosphorylated alpha-synuclein at S129 residue level in substantia nigra pars compacta of MPTP-treated C57BL/6 mouse at 50 mg/kg/day, iv treated for 5 days by dot blot analysis; type: functional, organism-based; conditions: time 5.0 day
[3] = target: T1, Microtubule-associated protein 1 light chain 3 beta (Homo sapiens, UniProt Q9GZQ8); experiment: Binding affinity to biotinylated recombinant LC3B (unknown origin) assessed as dissociation constant by BLI assay
Alpha-synuclein [4] = target: T2, Alpha-synuclein (Homo sapiens, UniProt P37840); experiment: Induction of alpha-synuclein (unknown origin) degradation overexpressed in HEK293T cells at 50 uM incubated for 24 hrs in presence of MG132 by immunoblot analysis; type: cell-based
Mus musculus [5] = experiment: Neuroprotective activity in MPTP-induced cognitive impairment in C57BL/6 mouse assessed as decrease in total distance travelled in navigation trial phase at 50 mg/kg/day, iv treated for 5 days measured after 5 to 8 days days by morris water maze test; type: functional, organism-based; conditions: time 10-13 day
[6] = Drug localization in HEK293T cells overexpressing mCherry-fused alpha-synuclein (unknown origin) assessed as colocalization of autophagosomes at 50 uM incubated for 2 hrs by LyTG staining based confocal laser scanning microscopy; type: ADME, cell-based; conditions: human, hek-293t
HEK-293T [7] = experiment: Downregulation of DYNC1I2 expression in HEK293T cells at 100 uM incubated for 24 hrs by proteomic profiling analysis; type: functional, cell-based; conditions: Homo sapiens
HEK-293T [8] = experiment: Downregulation of MAT1A expression in HEK293T cells at 100 uM incubated for 24 hrs by proteomic profiling analysis; type: functional, cell-based; conditions: Homo sapiens
SH-SY5Y [9] = experiment: Cytoprotective activity in human SH-SY5Y cells transfected with alpha-synuclein (unknown origin) assessed as cell viability at 25 uM by CCK8 assay relative to control; type: functional; conditions: read-out: Activity
[10] = target: T1, Microtubule-associated protein 1 light chain 3 beta; experiment: Induction of LC3B-mediated autophagy flux in HEK293T cells overexpressing alpha-synuclein (unknown origin) cotransfected with adenovirus-packaged plasmid encoding mCherry-EGFP-fused LC3B assessed as increase in density of lysosomes upto 100 uM incubated for 4 hrs by LyTR staining based confocal laser scanning microscopy; type: cell-based
HEK-293T [11] = experiment: Downregulation of UBE2L3 expression in HEK293T cells at 100 uM incubated for 24 hrs by proteomic profiling analysis; type: functional, cell-based; conditions: Homo sapiens
Mus musculus [12] = experiment: Downregulation of phosphorylated alpha-synuclein at S129 residue level in substantia nigra pars compacta of MPTP-treated C57BL/6 mouse at 50 mg/kg/day, iv treated for 5 days by immunoblot analysis; type: functional, organism-based; conditions: time 5.0 day
Mus musculus [13] = experiment: Downregulation of alpha-synuclein level in substantia nigra pars compacta of MPTP-treated C57BL/6 mouse at 50 mg/kg/day, iv treated for 5 days by immunoblot analysis; type: functional, organism-based; conditions: time 5.0 day
HEK-293T [14] = experiment: Downregulation of EIF4H expression in HEK293T cells at 100 uM incubated for 24 hrs by proteomic profiling analysis; type: functional, cell-based; conditions: Homo sapiens
SH-SY5Y [15] = experiment: Cytoprotective activity in human SH-SY5Y cells transfected with alpha-synuclein (unknown origin) assessed as necrotic cells at 100 uM measured after 24 hrs by […] based flow cytometry (reference value: 14.8 %); type: functional
[16] = Toxicity in C57BL/6 mouse assessed as histological change in heart at 50 to 200 mg/kg/day treated for 5 days by H and E staining based analysis; type: organism-based; conditions: in vivo, 120 h, dose 50-200 mg/kg/day, time 5 day
HEK-293T [17] = experiment: Downregulation of SLC25A3 expression in HEK293T cells at 100 uM incubated for 24 hrs by proteomic profiling analysis; type: functional, cell-based; conditions: Homo sapiens
[18] = Toxicity in C57BL/6 mouse assessed as reduction in ALT level at 200 mg/kg/day treated for 5 days; type: organism-based; conditions: in vivo, 120 h, time 5 day
SH-SY5Y [19] = experiment: Cytoprotective activity in human SH-SY5Y cells transfected with alpha-synuclein (unknown origin) assessed as viable cells at 100 uM measured after 24 hrs by […] based flow cytometry (reference value: 28.5 %); type: functional; conditions: read-out: Activity
Mus musculus [20] = experiment: Downregulation of alpha-synuclein level in substantia nigra pars compacta of MPTP-treated C57BL/6 mouse at 50 mg/kg/day, iv treated for 5 days by IHC analysis; type: functional, organism-based; conditions: time 5.0 day
HEK-293T [21] = experiment: Downregulation of NACA expression in HEK293T cells at 100 uM incubated for 24 hrs by proteomic profiling analysis; type: functional, cell-based; conditions: Homo sapiens
HEK-293T [22] = experiment: Downregulation of DLST expression in HEK293T cells at 100 uM incubated for 24 hrs by proteomic profiling analysis; type: functional, cell-based; conditions: Homo sapiens
[23] = Toxicity in C57BL/6 mouse assessed as tremor at 50 to 200 mg/kg/day treated for 5 days; type: organism-based; conditions: in vivo, 120 h, dose 50-200 mg/kg/day, time 5 day
[24] = target: T1, Microtubule-associated protein 1 light chain 3 beta; experiment: Binding affinity to LC3B in HEK293T cells overexpressing alpha-synuclein (unknown origin) at 50 to 100 uM incubated for 4 hrs by co-IP assay; type: cell-based; conditions: dose 50-100 µM
HEK-293T [25] = experiment: Downregulation of VAT1 expression in HEK293T cells at 100 uM incubated for 24 hrs by proteomic profiling analysis; type: functional, cell-based; conditions: Homo sapiens
Mus musculus [26] = experiment: Neuroprotective activity in MPTP-induced cognitive impairment in C57BL/6 mouse assessed as increase in platform crossover number in probe trial phase at 50 mg/kg/day, iv treated for 5 days measured after 5 to 8 days days by morris water maze test; type: functional, organism-based; conditions: time 10-13 day
Mus musculus [27] = experiment: Neuroprotective activity in MPTP-induced anxiety-like status in C57BL/6 mouse assessed as increase in time spent in zone centers of mouse track at 50 mg/kg/day, iv treated for 5 days measured after 4 days by open field test; type: functional, organism-based; conditions: time 9.0 day
HEK-293T [28] = experiment: Downregulation of PSMB7 expression in HEK293T cells at 100 uM incubated for 24 hrs by proteomic profiling analysis; type: functional, cell-based; conditions: Homo sapiens
Alpha-synuclein [29] = target: T2, Alpha-synuclein; experiment: Binding affinity to alpha-synuclein (unknown origin) overexpressed in HEK293T cells at 50 to 100 uM incubated for 4 hrs by co-IP assay; type: cell-based; conditions: dose 50-100 µM
[30] = Toxicity in C57BL/6 mouse assessed as histological change in liver at 50 to 200 mg/kg/day treated for 5 days by H and E staining based analysis; type: organism-based; conditions: in vivo, 120 h, dose 50-200 mg/kg/day, time 5 day
HEK-293T [31] = experiment: Downregulation of NME1 expression in HEK293T cells at 100 uM incubated for 24 hrs by proteomic profiling analysis; type: functional, cell-based; conditions: Homo sapiens
Mus musculus [32] = experiment: Neuroprotective activity in MPTP-induced cognitive impairment in C57BL/6 mouse assessed as decrease in mean speed in navigation trial phase at 50 mg/kg/day, iv treated for 5 days measured after 5 to 8 days days by morris water maze test; type: functional, organism-based; conditions: time 10-13 day

In the case of `CC(C)C[C@H](NC(=O)[C@H](Cc1c[nH]cn1)NC(=O)[C@@H](NC(=O)[C@H](Cc1c[nH]c2ccccc12)NC(=O)[C@H](CC(=O)O)NC(=O)[C@H](CC(=O)O)NC(=O)[C@H](CC(=O)O)NC(=O)CNC(=O)CNC(=O)[C@H](CO)NC(=O)[C@H](CO)NC(=O)CNC(=O)[C@H](CO)NC(=O)CNC(=O)[C@H](CCCNC(=N)N)NC(=O)[C@@H](NC(=O)[C@H](CCCCN)NC(=O)[C@H](CO)NC(=O)CNC(=O)[C@@H](NC(=O)[C@H](Cc1ccc(O)cc1)NC(=O)[C@H](CC(C)C)NC(=O)[C@@H](NC(=O)CN)C(C)C)C(C)C)[C@H](C)O)[C@@H](C)O)C(=O)N[C@@H](CO)C(=O)N[C@@H](CO)C(=O)N[C@@H](Cc1ccc(O)cc1)C(=O)NCC(=O)N[C@@H](CCCNC(=N)N)C(=O)N[C@@H](CCCCN)C(=O)N[C@@H](CCCCN)C(=O)N[C@@H](CCCNC(=N)N)C(=O)N[C@@H](CCCNC(=N)N)C(=O)N[C@@H](CCC(N)=O)C(=O)N[C@@H](CCCNC(=N)N)C(=O)N[C@@H](CCCNC(=N)N)C(=O)N[C@@H](CCCNC(=N)N)C(=O)O`, the viability at 100 µM (SH-SY5Y [1]) is reported as 94.9%, the Activity (Mus musculus [2]) is reported as “Active” and the Kd [3] is reported as 14.9 µM. For the same compound, the Activity (Alpha-synuclein [4]) was “Active”, the Activity (Mus musculus [5]) was “Active” and the Drug uptake [6] was “Active”. For the same compound, the Activity (HEK-293T [7]) was “Active”, the Activity (HEK-293T [8]) was “Active” and the viability at 25 µM (SH-SY5Y [9]) was 85.6%. For the same compound, the Activity [10] was “Active”, the Activity (HEK-293T [11]) was “Active” and the Activity (Mus musculus [12]) was “Active”. For the same compound, the Activity (Mus musculus [13]) was “Active”, the Activity (HEK-293T [14]) was “Active” and the Activity (SH-SY5Y [15]) was 4.07%. For the same compound, the Activity [16] was “Non-Toxic”, the Activity (HEK-293T [17]) was “Active” and the Activity [18] was “Toxic”. The viability at 100 µM (SH-SY5Y [19]) was 15.5%, the Activity (Mus musculus [20]) was “Active” and the Activity (HEK-293T [21]) was “Active”. The Activity (HEK-293T [22]) was “Active”, the Activity [23] was “Non-Toxic” and the Activity [24] was “Active”. The Activity (HEK-293T [25]) was “Active”, the Activity (Mus musculus [26]) was “Active” and the Activity (Mus musculus [27]) was “Active”. The Activity (HEK-293T [28]) was “Active”, the Activity (Alpha-synuclein [29]) was “Active” and the Activity [30] was “Non-Toxic”. For the same compound, the Activity (HEK-293T [31]) was “Active” and the Activity (Mus musculus [32]) was “Active”.

Source: ChEMBL document CHEMBL5321295, “Targeted Degradation of Alpha-Synuclein by Autophagosome-Anchoring Chimera Peptides” (J Med Chem, 2023)
